According to ChEMBL document CHEMBL1157539, “Thousands of chemical starting points for antimalarial lead identification” (Nature, 2010):

What follows are compounds tested on Plasmodium falciparum (assay: GSK_TCMDC: Inhibition of Plasmodium falciparum 3D7 in whole erythrocytes, using parasite LDH activity as an index of growth.). Settings: Plasmodium falciparum, 3D7.
Assay type: functional, organism-based
`Cc1nc2c(s1)c(=O)cc(CCc1cccc(F)c1F)n2CC(=O)N(Cc1ccc(-c2ccc(C(F)(F)F)cc2)cc1)C1CCN(C(C)C)CC1` showed an XC50 of 0.767 µM.
`COc1ccc(CN(C)CCCc2ccc(NC(=O)c3cccc4c(O)c5ccccc5nc34)cc2)cc1OC` was tested, and the XC50 was 1.37 µM.
With `CCNc1cc(C(=O)N[C@@H](Cc2ccccc2)[C@H](O)CNC2CCCC2)cc(N2CCCC2=O)c1` the XC50 was 0.0834 µM.
Work on `O=C(/C=C/c1cccc(C(F)(F)F)c1)NCCCCCN1CCC(c2c[nH]c3ccccc23)CC1` yielded an XC50 of 0.837 µM.
Compound `CCCN(CC1CC1)c1ncc(-c2ccccc2CNCc2ccccc2O)cn1` has an XC50 of 0.496 µM.
For `Nc1nc(N)c2c(ccc3c2ccn3Cc2ccc(F)cc2)n1`, the XC50 was 0.00653 µM.
In the case of `CC(C)CCNc1nc(NCCc2ccccc2)c2cc(O)ccc2n1`, the XC50 is reported as 0.238 µM.
Work on `Cc1ccc(NC(C)C(=O)Nc2ccc(C#N)cc2)cc1S(=O)(=O)N1CCCCC1` (stereo not drawn) yielded an XC50 of 0.545 µM.
In the case of `Cc1ccc(Cn2cnc(N3CC(C)NC(C)C3)cc2=O)cc1NC(=O)Nc1ccc(-c2ccccc2)cc1` (stereo not drawn), the XC50 is reported as 0.851 µM.
Work on `CC(C)(C)C(=O)Nc1ccccc1Oc1ccc(Cl)cc1` yielded an XC50 of 0.00748 µM.
For `CCn1c(-c2nonc2N)nc2c(-c3cccc(NC(=O)Nc4ccc(C(F)(F)F)cc4)c3)ncc(OCCCN)c21`, the XC50 was 1.05 µM.
For `Cc1ccc(CN2CCC(Oc3cccc(NC(=O)c4ccc(C(F)(F)F)cc4)c3)CC2)cc1`, the XC50 was 1.02 µM.
Work on `CC(C)Sc1nc2c(c(=O)n1Cc1ccco1)C1(CCCCC1)Cc1ccccc1-2` yielded an XC50 of 0.251 µM.
`COc1ccc(Cn2c(N3CCN(S(=O)(=O)c4ccc(OC)cc4)CC3)nc3c2c(=O)n(CC2CC2)c(=O)n3CC2CC2)cc1` was tested, and the XC50 was 0.892 µM.
In the case of `CCc1c(CCNCCc2cccc(CCNCCc3ccc(OC)c(OC)c3CC)c2)ccc(OC)c1OC`, the XC50 is reported as 0.361 µM.
`Fc1ccccc1C=NN=c1cc[nH]c2ccc(C(F)(F)F)cc12` showed an XC50 of 0.871 µM.
`COc1cc2c(cc1C(F)(F)F)N(C(=O)Nc1cccc(-c3ccc(CN(C)C)cc3)c1)CC2` was tested, and the XC50 was 0.71 µM.
Compound `CN(C)Cc1cccc(CNC(=O)c2sccc2OCc2ccc(Cl)cc2)c1` has an XC50 of 0.835 µM.
`N#Cc1cccc(NC(=O)c2ccc(S(=O)(=O)NCC3CCCN3CC3CCCCC3)cc2)c1` (stereo not drawn) showed an XC50 of 1.05 µM.
Work on `CC(C)Oc1ccc2ccccc2c1CNCCCCCCNCc1c(OC(C)C)ccc2ccccc12` yielded an XC50 of 0.612 µM.
`Nc1c2c(nc3ccc(C(=O)Nc4ccc(Br)cc4)cc13)CCCC2` gave an XC50 of 0.149 µM.
With `Nc1nc(N)c2c(ccc3c2ncn3Cc2ccccc2)n1` the XC50 was 0.0934 µM.
With `N#Cc1ccc(CN2CCC(Oc3ccc(NC(=O)c4ccccc4)cc3Cl)CC2)cc1` the XC50 was 1.26 µM.
With `CCCCCCCc1c(C)nc2c(OC)cccc2c1O` the XC50 was 0.921 µM.
For `COc1ccc(CNCc2ccc(-c3ccc(-c4nc5cc(C(F)(F)F)ccc5[nH]4)cc3)cc2)cc1`, the XC50 was 0.135 µM.
With `O=C(Nc1ccc(F)cc1)c1ccc(C(=O)NC2CCN(CC3CCCCC3)CC2)cc1` the XC50 was 0.544 µM.
Work on `COc1cccc(NC(=O)c2cc(Br)cc(N3CCN(c4ccncc4)CC3)c2)c1` yielded an XC50 of 0.772 µM.
`Cc1cccc(-n2c(Nc3ccc(C)c(Cl)c3)nc3ccc(S(=O)(=O)NC(C)C(C)C)cc32)c1` (stereo not drawn) gave an XC50 of 0.648 µM.
`COc1ccc(CNc2nc(NCc3ccc(C(F)(F)F)cc3)c3cc(OC)c(OC)cc3n2)cc1OC` was tested, and the XC50 was 0.21 µM.
Work on `CNCC(O)c1cc(Cl)c(Cl)cc1C` (stereo not drawn) yielded an XC50 of 0.922 µM.
For `c1ccc(Oc2ccc(Nc3ccnc4cc(-c5csc(CNCCN6CCOCC6)n5)ccc34)cc2)cc1`, the XC50 was 0.708 µM.
Work on `O=C(NCCNc1nc(NCCNC(=O)Nc2ccccc2)c2ccc(=O)n(-c3c(F)cccc3F)c2n1)Nc1ccccc1` yielded an XC50 of 0.17 µM.
Work on `O=C(NCc1ccc(C(F)(F)F)cc1)c1cccc(-c2nnc(-c3cccc(-c4cncnc4)c3)o2)c1` yielded an XC50 of 0.544 µM.
`Cc1cccc(C(=O)Nc2ccnc(N3CCC(N(C)Cc4ccc(C#N)cc4)CC3)c2)c1` was tested, and the XC50 was 0.912 µM.
Work on `FC(F)(F)c1ccc(N2CCCN(Cc3cccc(-c4ccccc4CNCc4ccc5c(c4)OCO5)c3)CC2)nc1` yielded an XC50 of 1.19 µM.
`Cc1ccccc1CCNC(=O)c1ccc(N2CCN(c3ccncc3)CC2)nc1` was tested, and the XC50 was 1.39 µM.
`CCNc1cc(C(=O)N[C@@H](Cc2ccccc2)[C@H](O)CNCc2cccc(-c3cncnc3)c2)cc(N2CCCC2=O)c1` was tested, and the XC50 was 0.663 µM.
`Cc1cccc(Nc2c(-c3cc(Br)ccc3O)nc3ncccn23)c1` was tested, and the XC50 was 0.206 µM.
`COc1ccc(C2CC(=O)C3=C(C2)NC(C)=C(C(=O)OC(C)C)C3c2cccc(O)c2)cc1OC` (stereo not drawn) showed an XC50 of 0.785 µM.
With `N=C(N)c1ccc2[nH]c(SCc3ccccc3)nc2c1` the XC50 was 0.687 µM.
In the case of `Fc1ccccc1C=NN=c1cc[nH]c2ccccc12`, the XC50 is reported as 0.894 µM.
`CC[C@H]1CN2CC[C@@H]1C[C@H]2[C@H](O)c1cc(N2CCC(N3CCCCC3)CC2)nc2ccc(OC)cc12` was tested, and the XC50 was 0.267 µM.
`CN(C)CCOc1cc(NC(=O)c2ccc(-c3ccc(Cl)cc3Cl)cc2)ccc1-c1ccccc1` gave an XC50 of 0.906 µM.
In the case of `CS(=O)(=O)Cc1ccc(Nc2nccc(-c3c(-c4cccc(C(=O)Nc5c(F)cccc5F)c4)nn4ccccc34)n2)cc1`, the XC50 is reported as 0.532 µM.
`CN(C)c1ccc(-c2ccc(C(=O)NC3CCN(Cc4cccc(C(F)(F)F)c4)CC3)s2)cc1` was tested, and the XC50 was 0.985 µM.
`CCc1cc(OC)c(C(=O)NC2CCN(C[C@H](O)c3ccnc4ccc(OC)cc34)CC2)cc1Br` was tested, and the XC50 was 0.815 µM.
For `CCCCNCc1ccc(OCc2cccc(COc3ccc(CNCCCC)cc3)c2)cc1`, the XC50 was 0.318 µM.
Compound `Oc1ccc2nc(NCCCc3ccccc3)nc(NCCc3ccccc3)c2c1` has an XC50 of 0.289 µM.
For `CC(C)COc1ccc(Cl)cc1Cc1nc(-c2nc3ccc(CN4CCCCC4)cc3[nH]2)co1`, the XC50 was 0.738 µM.
`COCCNCc1ccc(-c2ccc(CN(C(=O)Nc3ccccc3)C3CCN(Cc4ccccc4)CC3)cc2)cc1` gave an XC50 of 0.746 µM.
`Cc1ccccc1C1CCN(C2CCC(NC(=O)C3=Cc4ccccc4OC3)CC2)CC1` (stereo not drawn) gave an XC50 of 0.935 µM.
`COc1ccc(NC(=O)/C=C/c2ccccc2Cl)cc1OCCN1CCC(N2CCCCC2)CC1` was tested, and the XC50 was 0.901 µM.
For `COc1ccc(CC(=O)NC2CCN(c3ccnc4cc(Cl)ccc34)C2)cc1` (stereo not drawn), the XC50 was 0.241 µM.
In the case of `CS(=O)(=O)CCNCc1ccc(-c2ccc3c(Nc4ccc(F)cc4Cl)ccnc3c2)o1`, the XC50 is reported as 0.744 µM.
Compound `COc1cc(-n2cnc3cc(-c4ccc(Cl)cc4)sc3c2=O)ccc1OCCN1CCC(c2cccc(NC(C)=O)c2)CC1` has an XC50 of 0.553 µM.
For `COc1cccc(-c2nn(C)c3sc(C(=O)Nc4cccnc4)cc23)c1`, the XC50 was 0.948 µM.
Work on `Cc1ccc2[nH]c(C)cc(=NN=Cc3ccc(Cl)cc3)c2c1` yielded an XC50 of 0.992 µM.
`Oc1ccc(Br)cc1-c1nc2ccc(Cl)cc2nc1-c1cc(Br)ccc1O` was tested, and the XC50 was 0.789 µM.
`CN1CCN(c2ccc(Nc3ncc(Cl)c(Nc4cccnc4C(N)=O)n3)cc2)CC1` gave an XC50 of 0.153 µM.
In the case of `OC1CCCN(Cc2ccc(-c3ccc(-c4nc5cc(F)ccc5[nH]4)cc3)cc2)C1` (stereo not drawn), the XC50 is reported as 0.854 µM.
Work on `Cc1[nH]c2ccccc2c1C(=O)C(C)Sc1nnc(-c2ccccc2F)o1` (stereo not drawn) yielded an XC50 of 0.691 µM.
Compound `Cc1ccc(O)cc1Nc1c(C(N)=O)cnc2ccc(-c3cncs3)cc12` has an XC50 of 0.67 µM.
For `COc1cc2nc(N3CCC(CNC(=O)c4cc(Br)c(Br)s4)CC3)nc(N)c2cc1OC`, the XC50 was 0.707 µM.
`CCOc1cc2ncnc(Nc3ccc(OCc4ccccc4OC)c(OC)c3)c2cc1OCC` was tested, and the XC50 was 0.879 µM.
`CC(ON1C(N)=NC(N)=NC1(C)C)c1ccccc1` (stereo not drawn) showed an XC50 of 0.0109 µM.
In the case of `Fc1ccc2[nH]c3c(NCCCN4CCOCC4)ncnc3c2c1`, the XC50 is reported as 0.714 µM.
With `O=C(NCCN1CCC(c2ncc(-c3ccccc3)o2)CC1)c1ccc(NC(=O)c2ccc(Cl)cc2)cc1` the XC50 was 0.244 µM.
In the case of `c1cc2[nH]c(CCCCCc3nc4cc(C5=N[C@@H]6CCCC[C@@H]6N5)ccc4[nH]3)nc2cc1C1=N[C@@H]2CCCC[C@@H]2N1`, the XC50 is reported as 0.199 µM.
`C=CCn1c(C)cc(C(=O)COc2ccc(S(=O)(=O)N3CCOCC3)cc2[N+](=O)[O-])c1C` gave an XC50 of 1.11 µM.
`CCOC(=O)C(NC(=O)Cc1ccccc1)C(C)C` (stereo not drawn) was tested, and the XC50 was 0.295 µM.
`O=C(NC1CC1)c1cnc(N2CCC(OCc3ccccc3)CC2)c(Cl)c1` gave an XC50 of 1.4 µM.
`Cc1ccc(F)cc1-c1cc(N2CCCN(C(=O)c3ccc(Br)o3)CC2)ncn1` gave an XC50 of 1.43 µM.
Work on `Cc1ccc(NS(=O)(=O)c2ccc(-c3ccccc3)cc2)c(Cn2cnc(N3CCCNCC3)cc2=O)c1` yielded an XC50 of 0.859 µM.
`CCn1ccc2c3c(N)nc(N)nc3ccc21` showed an XC50 of 0.313 µM.
Compound `COc1cc(C=CC(=O)N2CCC(CCN3CCC(c4c[nH]c5ccccc45)CC3)CC2)cc(OC)c1` has an XC50 of 0.909 µM.
With `CC(=O)N1c2ccccc2C(C)=CC1(C)C` the XC50 was 0.938 µM.
For `O=C(Nc1ccc(Cn2ncc(N3CCCNCC3)c(Cl)c2=O)cc1)Nc1ccc(SC(F)(F)F)cc1`, the XC50 was 0.529 µM.
`O=C(CSc1nc2ccccc2c(=O)n1CC1CCCO1)Nc1cc(C(F)(F)F)ccc1Cl` (stereo not drawn) showed an XC50 of 0.229 µM.
`Cc1ccc2c(C3=CCN(CCCCC4(C)C(=O)Nc5ccccc54)CC3)c(C)[nH]c2c1` (stereo not drawn) showed an XC50 of 0.374 µM.
`CC(C)CNc1nc(N)nc2ccc3c(ccn3CC(C)C)c12` showed an XC50 of 0.649 µM.
`Cc1[nH]c2ccccc2c(=O)c1Br` showed an XC50 of 0.843 µM.
In the case of `O=C(Nc1ccc(F)cc1)NC1CCN(c2ccnc3ccccc23)C1` (stereo not drawn), the XC50 is reported as 0.873 µM.
In the case of `COc1ccc(C23Oc4cc(OC)cc(OC)c4C2(O)C2(CC3c3ccccc3)SCCCS2)cc1` (stereo not drawn), the XC50 is reported as 0.124 µM.
In the case of `N#Cc1cccc(NC(=O)Nc2cccc(-c3cccc(-c4nc5ccccc5[nH]4)c3)c2)c1`, the XC50 is reported as 0.0902 µM.
With `CCCCCn1c(Sc2ccc(C#N)c([N+](=O)[O-])c2)nnc1-c1cccs1` the XC50 was 0.777 µM.
Compound `CN1CCCN(Cc2cccc(-c3ccc(NC(=O)c4ccc(Cl)cc4)cc3)c2)CC1` has an XC50 of 0.72 µM.
`O=C(Nc1ccc(-c2cccc(-c3nc4cc(C(F)(F)F)ccc4[nH]3)c2)cc1)c1cccnc1` gave an XC50 of 0.725 µM.
In the case of `COc1cccc(C(NC(=O)c2ccccc2)c2ccc3cccnc3c2O)c1` (stereo not drawn), the XC50 is reported as 1.08 µM.
`Nc1ccn([C@@H]2O[C@H](COC(c3ccccc3)(c3ccccc3)c3ccccc3)[C@@H](O)[C@@H]2O)c(=O)n1` showed an XC50 of 0.834 µM.
For `Cc1ccc(C(O)CNc2ccnc(Nc3cccc(-c4csc(C)n4)c3)n2)cc1` (stereo not drawn), the XC50 was 0.826 µM.
`COc1ccc(Br)cc1C1Nc2ccc3ccccc3c2C2=C1C(=O)CC(c1ccccc1)C2` (stereo not drawn) gave an XC50 of 0.59 µM.
`COc1ccc2nccc([C@@H](O)CN3CCC(NCCOc4c(C)cccc4F)CC3)c2c1` was tested, and the XC50 was 0.347 µM.
In the case of `Cc1ccc(NC(=O)c2ccc(CN3CCCN(CC4CCCCC4)CC3)cc2)cc1F`, the XC50 is reported as 0.29 µM.
With `CC1Cc2ccccc2N1S(=O)(=O)c1cccc(C(=O)Nc2nc(-c3ccccn3)cs2)c1` (stereo not drawn) the XC50 was 1.32 µM.
Work on `Cc1cccc2nc(-c3ccc(-c4cccc(CN5CCC(CCN6CCCCC6)CC5)c4)s3)[nH]c12` yielded an XC50 of 0.14 µM.
Work on `c1cc(Nc2nc(-c3ccc(-c4csc(Nc5ccncc5)n4)cc3)cs2)ccn1` yielded an XC50 of 0.117 µM.
Work on `COc1ccc(S(=O)(=O)NC2CCN(c3cc(C)nc(Nc4cccc(C#N)c4)n3)CC2)cc1` yielded an XC50 of 0.946 µM.
`O=C(N[C@H]1CCN(Cc2ccc(OCCCN3CCCCC3)cc2)C1)c1ccc(Cl)c(Cl)c1` was tested, and the XC50 was 0.781 µM.
